Reference: patent US20250163104A1, “MACROCYCLIC IMMUNOMODULATORS” (priority 2021, published 2025)
Where a SMILES comes first, the peptide text is derived from it. Bridges are numbered along the chain shown (N, C = ends). [ ]: non-standard residue; d: D form. Bip = N[C@@H](Cc1ccc(-c2ccccc2)cc1)C(=O)O; Orn = NCCC[C@H](N)C(=O)O; Dab = NCC[C@H](N)C(=O)O

The compounds below were run against T1, human PD-1 / PD-L1-Ig binding on Jurkat cell line over-expressing human PD-1 (Jurkat-PD-1) (Homo sapiens, UniProt Q15116) (assay: Jurkat-PD-1 Cell Binding High-Content Screening Assay (CBA)). Details: Jurkat-PD-1 cells, PE-labeled PD-L1-Ig 20 nM final; read-out: Jurkat HPD1_PDL1 IC50.
T1 construct: expressed in transfected cells; host or cells: Jurkat
Format: cell-based
Summary of the method: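 Binding of fluorescent PD-L1-Ig (phycoerythrin linked via the Ig tag, 20 nM final) to PD-1-overexpressing Jurkat cells was imaged after a 2 h, 37° C compound pretreatment and 1 hour ligand incubation.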

T1 sequence (Q15116 25-288): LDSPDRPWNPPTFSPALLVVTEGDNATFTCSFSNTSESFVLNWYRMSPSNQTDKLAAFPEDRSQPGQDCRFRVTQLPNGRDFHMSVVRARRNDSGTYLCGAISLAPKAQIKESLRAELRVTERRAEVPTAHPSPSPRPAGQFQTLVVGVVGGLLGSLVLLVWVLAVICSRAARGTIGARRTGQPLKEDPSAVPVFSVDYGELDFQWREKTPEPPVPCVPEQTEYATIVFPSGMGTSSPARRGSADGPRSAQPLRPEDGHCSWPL

SMILES	IC50 [µM]
CC[C@H](C)[C@@H]1NC(=O)[C@H](Cc2ccc(-c3ccccc3)cc2)NC(=O)[C@H](C(C)C)NC(=O)[C@H](Cc2c[nH]c3ccccc23)NC(=O)[C@H](CC(=O)O)NC(=O)[C@H](Cc2ccc(O)cc2)NC(=O)[C@H](CC(N)=O)NC(=O)CSC[C@@H](C(=O)NCC(N)=O)NC(=O)[C@H](CO)NC(=O)[C@H](C(C)C)NC(=O)[C@H](CC(C)C)NC(=O)[C@H](CCN)NC(=O)[C@@H](CC(C)C)NC(=O)[C@H](CCN)NC1=O [Compound 1123] ({CH2CO}-NYDWV[Bip]I[Dab][dL][Dab]LVSCG-NH2; thioether N-14)	0.0148
CC[C@H](C)[C@@H]1NC(=O)[C@H](Cc2ccc(-c3ccccc3)cc2)NC(=O)[C@H](C(C)C)NC(=O)[C@H](Cc2c[nH]c3ccccc23)NC(=O)[C@H](CC(=O)O)NC(=O)[C@H](Cc2ccc(O)cc2)NC(=O)[C@H](CC(N)=O)NC(=O)CSC[C@@H](C(=O)NCC(N)=O)NC(=O)[C@H]([C@@H](C)O)NC(=O)[C@H](C(C)C)NC(=O)[C@H](CC(C)C)NC(=O)[C@H](CCN)NC(=O)[C@@H](CC(C)C)NC(=O)[C@H](CCCN)NC1=O [Compound 1124] ({CH2CO}-NYDWV[Bip]I[Orn][dL][Dab]LVTCG-NH2; thioether N-14)	0.0243
CC[C@H](C)[C@@H]1NC(=O)[C@H](Cc2ccc(-c3ccccc3)cc2)NC(=O)[C@H](C(C)C)NC(=O)[C@H](Cc2c[nH]c3ccccc23)NC(=O)[C@H](CC(=O)O)NC(=O)[C@H](Cc2ccc(O)cc2)NC(=O)[C@H](CC(N)=O)NC(=O)CSC[C@@H](C(=O)NCC(N)=O)NC(=O)[C@H]([C@@H](C)O)NC(=O)[C@H](C(C)C)NC(=O)[C@H](CC(C)C)NC(=O)[C@H](CCN)NC(=O)[C@@H](CC(C)C)NC(=O)[C@H](CCN)NC1=O [Compound 1126] ({CH2CO}-NYDWV[Bip]I[Dab][dL][Dab]LVTCG-NH2; thioether N-14)	0.0239
CC(C)C[C@@H]1NC(=O)[C@H](CCN)NC(=O)[C@@H](CC(C)C)NC(=O)[C@H](CCCN)NC(=O)[C@H](C(C)C)NC(=O)[C@H](Cc2ccc(-c3ccccc3)cc2)NC(=O)[C@H](C(C)C)NC(=O)[C@H](Cc2c[nH]c3ccccc23)NC(=O)[C@H](CC(=O)O)NC(=O)[C@H](Cc2ccc(O)cc2)NC(=O)[C@H](CC(N)=O)NC(=O)CSC[C@@H](C(=O)N[C@@H](C)C(N)=O)NC(=O)[C@H](CO)NC(=O)[C@H](C(C)C)NC1=O [Compound 1127] ({CH2CO}-NYDWV[Bip]V[Orn][dL][Dab]LVSCA-NH2; thioether N-14)	0.015
CC(C)C[C@@H]1NC(=O)[C@H](CCN)NC(=O)[C@@H](CC(C)C)NC(=O)[C@H](CCCCN)NC(=O)[C@H](C(C)C)NC(=O)[C@H](Cc2ccc(-c3ccccc3)cc2)NC(=O)[C@H](C(C)C)NC(=O)[C@H](Cc2c[nH]c3ccccc23)NC(=O)[C@H](CC(=O)O)NC(=O)[C@H](Cc2ccc(O)cc2)NC(=O)[C@H](CC(N)=O)NC(=O)CSC[C@@H](C(=O)N[C@@H](C)C(N)=O)NC(=O)[C@H](CO)NC(=O)[C@H](C(C)C)NC1=O [Compound 1128] ({CH2CO}-NYDWV[Bip]VK[dL][Dab]LVSCA-NH2; thioether N-14)	0.0176
CC[C@H](C)[C@@H]1NC(=O)[C@H](Cc2ccc(-c3ccccc3)cc2)NC(=O)[C@H](C(C)C)NC(=O)[C@H](Cc2c[nH]c3ccccc23)NC(=O)[C@H](CC(=O)O)NC(=O)[C@H](Cc2ccc(O)cc2)NC(=O)[C@H](CC(N)=O)NC(=O)CSC[C@@H](C(=O)N[C@@H](C)C(N)=O)NC(=O)[C@H]([C@@H](C)O)NC(=O)[C@H](C(C)C)NC(=O)[C@H](CC(C)C)NC(=O)[C@H](CCCCN)NC(=O)[C@@H](CC(C)C)NC(=O)[C@H](CCCN)NC1=O [Compound 1129] ({CH2CO}-NYDWV[Bip]I[Orn][dL]KLVTCA-NH2; thioether N-14)	0.0197
CC(C)C[C@@H]1NC(=O)[C@H](CCCCN)NC(=O)[C@@H](CC(C)C)NC(=O)[C@H](CCCN)NC(=O)[C@H](C(C)C)NC(=O)[C@H](Cc2ccc(-c3ccccc3)cc2)NC(=O)[C@H](C(C)C)NC(=O)[C@H](Cc2c[nH]c3ccccc23)NC(=O)[C@H](CC(=O)O)NC(=O)[C@H](Cc2ccc(O)cc2)NC(=O)[C@H](CC(N)=O)NC(=O)CSC[C@@H](C(=O)N[C@@H](C)C(N)=O)NC(=O)[C@H]([C@@H](C)O)NC(=O)[C@H](C(C)C)NC1=O [Compound 1130] ({CH2CO}-NYDWV[Bip]V[Orn][dL]KLVTCA-NH2; thioether N-14)	0.0195
CC[C@H](C)[C@@H]1NC(=O)[C@H](Cc2ccc(-c3ccccc3)cc2)NC(=O)[C@H](C(C)C)NC(=O)[C@H](Cc2c[nH]c3ccccc23)NC(=O)[C@H](CC(=O)O)NC(=O)[C@H](Cc2ccc(O)cc2)NC(=O)[C@H](CC(N)=O)NC(=O)CSC[C@@H](C(=O)NCC(N)=O)NC(=O)[C@H]([C@@H](C)O)NC(=O)[C@H](C(C)C)NC(=O)[C@H](CC(C)C)NC(=O)[C@H](CCCCN)NC(=O)[C@@H](CC(C)C)NC(=O)[C@H](CCCN)NC1=O [Compound 1131] ({CH2CO}-NYDWV[Bip]I[Orn][dL]KLVTCG-NH2; thioether N-14)	0.0248
CC(C)C[C@@H]1NC(=O)[C@H](CCCCN)NC(=O)[C@@H](CC(C)C)NC(=O)[C@H](CCCN)NC(=O)[C@H](C(C)C)NC(=O)[C@H](Cc2ccc(-c3ccccc3)cc2)NC(=O)[C@H](C(C)C)NC(=O)[C@H](Cc2c[nH]c3ccccc23)NC(=O)[C@H](CC(=O)O)NC(=O)[C@H](Cc2ccc(O)cc2)NC(=O)[C@H](CC(N)=O)NC(=O)CSC[C@@H](C(=O)N[C@@H](C)C(N)=O)NC(=O)[C@H](CO)NC(=O)[C@H](C(C)C)NC1=O [Compound 1132] ({CH2CO}-NYDWV[Bip]V[Orn][dL]KLVSCA-NH2; thioether N-14)	0.0207
CC(C)C[C@@H]1NC(=O)[C@H](CCCCN)NC(=O)[C@@H](CC(C)C)NC(=O)[C@H](CCCN)NC(=O)[C@H](Cc2cnc[nH]2)NC(=O)[C@H](Cc2ccc(-c3ccccc3)cc2)NC(=O)[C@H](C(C)C)NC(=O)[C@H](Cc2c[nH]c3ccccc23)NC(=O)[C@H](CC(=O)O)NC(=O)[C@H](Cc2ccc(O)cc2)NC(=O)[C@H](CC(N)=O)NC(=O)CSC[C@@H](C(=O)N[C@@H](C)C(N)=O)NC(=O)[C@H]([C@@H](C)O)NC(=O)[C@H](C(C)C)NC1=O [Compound 1133] ({CH2CO}-NYDWV[Bip]H[Orn][dL]KLVTCA-NH2; thioether N-14)	0.0331
CC(C)C[C@@H]1NC(=O)[C@H](CCCCN)NC(=O)[C@@H](CC(C)C)NC(=O)[C@H](CCCN)NC(=O)[C@H](Cc2cnc[nH]2)NC(=O)[C@H](Cc2ccc(-c3ccccc3)cc2)NC(=O)[C@H](C(C)C)NC(=O)[C@H](Cc2c[nH]c3ccccc23)NC(=O)[C@H](CC(=O)O)NC(=O)[C@H](Cc2ccc(O)cc2)NC(=O)[C@H](CC(N)=O)NC(=O)CSC[C@@H](C(=O)N[C@@H](C)C(N)=O)NC(=O)[C@H](CO)NC(=O)[C@H](C(C)C)NC1=O [Compound 1134] ({CH2CO}-NYDWV[Bip]H[Orn][dL]KLVSCA-NH2; thioether N-14)	0.0321
CC(C)C[C@@H]1NC(=O)[C@H](CCCCN)NC(=O)[C@@H](CC(C)C)NC(=O)[C@H](CCCN)NC(=O)[C@H](Cc2cnc[nH]2)NC(=O)[C@H](Cc2ccc(-c3ccccc3)cc2)NC(=O)[C@H](C(C)C)NC(=O)[C@H](Cc2c[nH]c3ccccc23)NC(=O)[C@H](CC(=O)O)NC(=O)[C@H](Cc2ccc(O)cc2)NC(=O)[C@H](CC(N)=O)NC(=O)CSC[C@@H](C(=O)NCC(N)=O)NC(=O)[C@H](CO)NC(=O)[C@H](C(C)C)NC1=O [Compound 1135] ({CH2CO}-NYDWV[Bip]H[Orn][dL]KLVSCG-NH2; thioether N-14)	0.013
